# Measured values as given in patent publication US11639494B2, “Culture medium” (Vitrolife Sweden AB, priority 2015, dated 2023).
# What was measured:
# embryos = experiment: Group embryo culture in 20% oxygen, blastocyst cell numbers by differential staining; assay type: cell-based, mice; settings: 20% O2; for optimal dose (dose that resulted in significantly higher cell numbers): single compound
# Procedure: F1 virgin hybrid female mice (C57BL/6×CBA) at 3-4 weeks old were intraperitoneally injected with 5 IU of pregnant mare's serum gonadotrophin. 48 hours later 5 IU of human chorulon gonadotrophin was administered and the female mice mated with F1 male mice >12 weeks old. Successful mating was confirmed by the presence of a vaginal mucus plug the following morning. Pronucleate oocytes were collected 22 hours after hCG injection, in pre-warmed handling medium (G-MOPS) supplemented with 5 mg/ml human sera albumin. Cumulus cells were denuded from the oocytes with GMOPS containing 300 IU/ml hyaluronidase. All embryos were washed twice in G-MOPS media and once in G-1™ medium prior to allocation for culture. Animals were housed in 12 hour light-day photoperiod with food and water available ad libitum.
# Embryos were cultured in groups of 10 in 20 ul drops of media under paraffin oil in 6% CO2 in air (atmospheric oxygen ˜20%) or at 6% CO2 5% oxygen at 37° C. in a humidified multi gas incubator (Sanyo MCOK-5M[RC], Japan). Embryos were cultured in G-1™ medium (G-1™ with HSA-Solution™, Vitrolife) for 48 hours and then for a further 48 hours in G-2™ medium (G-2™ with HSA-Solution™, Vitrolife). […] All cultures were performed in 35 mm petri dishes (Falcon, BD Biosciences).
# Differential staining of embryos was performed by techniques commonly known in the art to determine the allocation of cells to the inner cell mass (ICM) and trophectoderm (TE) on day 5 (e.g. in the blastocyst). Briefly, after zona removal using pronase, embryos were treated with a complement reaction which labels the in TE nuclei with propidium iodide and leaves the ICM intact and unlabelled. Following bisbenzimide treatment, all nuclei were stained. Embryos were whole-mounted in glycerol and imaged using an inverted fluorescence microscope (Nikon Eclipse TS100) fitted with a digital camera (Nikon digital sight DS-Fi1) and nuclei counted using imaging software ImageJ.
# Embryos cultured in control groups were grown in G-™1 and G-2™ medium supplemented with HSA 5 mg/ml (HSA, Vitrolife). Embryos in treatment groups were similarly cultured with Acetyl Carnitine, Acetyl Cysteine or α-Lipoic acid Sigma Aldrich, USA) supplemented in the G-1™ and G-2™ medium at doses of 1, 10 and 100 μM and supplemented with HSA as the control group. […] The “total mean” means the average total number of cells in the embryo (including inner cell mass and trophectoderm) at day 5.
# Embryos cultured in control groups were grown in G-1™ and G-2™ medium supplemented with HSA-Solution™ 5 mg/ml. Embryos in treatment groups were similarly cultured with 10 μM Acetyl Carnitine-10 μM Acetyl Cysteine, 10 μM Acetyl Carnitine-5 μM Lipoic acid, 10 μM Acetyl Cysteine-5 μM Lipoic acid, the triple cocktail of 10 μM Acetyl Carnitine-10 μM Acetyl Cysteine 5 μM Lipoic acid supplemented in the G-1™ and G-2™ medium and supplemented with HSA.
# glutathione (GSH) = experiment: BSO/MCB probe dosage optimisation and verification of MCB specificity to glutathione; assay type: cell-based, mice
# Procedure: Embryos were cultured in groups of 10 in 20 ul drops of media under paraffin oil (Ovoil, Vitrolife) in 6% CO2, 20% O2 74% N2 at 37° C. in a humidified multi gas incubator (Sanyo MCOK-5M[RC], Japan). Half of the embryos were allocated to the control group and the other half to the treatment group. Control group embryos were cultured in G-1™ medium (G-1™ with HSA-Solution™, Vitrolife) […]. Treatment group embryos were likewise cultured with the optimal triple antioxidant dose supplemented in the G-1™ medium (as determined in Example 2).
# Immediately after collection, pronucleate control embryos were incubated in G-1™ medium spiked with BSO at doses of 0, 50, 100, 200, 400, 800, 1600 μM for 4 hours at 6% CO2, 20% O2 74% N2 at 37° C. Embryos were rinsed thoroughly in G-1™ with HSA-Solution™ media and placed individually in 2 μl drops of GMOPS with HSA-Solution™ (G-MOPS™ Plus, Vitrolife AB, Sweden) made on glass bottom dishes (Fluorodish, Coherent Scientific, Australia) and overlayed with paraffin oil (Ovoil, Vitrolife) for fluorescence imaging. Optimal dosage was determined by recording the fluorescence at 360±40 nm/460±40 nm excitation/emission wavelengths under a fluorescence microscope (Nikon Eclipse TS100). Results were calculated by subtracting the values of blank (embryos with no BSO exposure) and basal levels of the culture media from the fluorescence recorded. […]
Structure (SMILES),Total Mean (average total number of cells in the embryo at day 5) (embryos; 1 μM in G-1 and G-2 medium),Total Mean (average total number of cells in the embryo at day 5) (embryos; 10 μM in G-1 and G-2 medium),Total Mean (average total number of cells in the embryo at day 5) (embryos; 30 μM in G-1 and G-2 medium),Total Mean (average total number of cells in the embryo at day 5) (embryos; 1000 μM in G-1 and G-2 medium),optimal dose (dose that resulted in significantly higher cell numbers) (embryos) [µM],"MCB fluorescence, BSO treated versus non-BSO treated group (glutathione (GSH); 200 μM BSO, 80 μM MCB)","MCB fluorescence compared to groups treated with MCB only (glutathione (GSH); pre-treated with 200 μM BSO, then 10 μM/ml or 40 μmol/ml MCB)",Total Mean (average total number of cells in the embryo at day 5) (embryos; 5 μM in G-1 and G-2 medium),Total Mean (average total number of cells in the embryo at day 5) (embryos; 20 μM in G-1 and G-2 medium),Total Mean (average total number of cells in the embryo at day 5) (embryos; 80 μM in G-1 and G-2 medium)
"CC(=O)O[C@H](CC(=O)[O-])C[N+](C)(C)C [Acetyl Carnitine, acetyl-L-carnitine]",95.85,107.83,86.93,67.41,10,–,–,–,–,–
"CC(=O)N[C@@H](CS)C(=O)O [Acetyl Cysteine, N-acetyl-L-cysteine]",81.92,109.29,104.38,95.17,10,–,–,–,–,–
"CCCCS(=N)(=O)CCC(N)C(=O)O (centres unmarked) [BSO, buthionine sulfoximine]",–,–,–,–,–,no significant differences,significantly reduced fluorescence,–,–,–
"O=C(O)CCCCC1CCSS1 (stereo not drawn) [lipoic acid, α-lipoic acid]",–,91.3,–,–,5,–,–,90.2,94,34.0
